The subject of one data set is male ICR mice. Kind of data set: Acute Toxicity Test. The note with it: oral, 5 g/kg of body weight; observed for 7 days. As to the method:
Water, or an aqueous solution of N-Methyl-L-Serine (this was prepared to have a concentration of 5 g/kg of body weight of test animal, as a sample) was orally administered to male ICR mice (5 weeks-age; body weight, 24 to 28 g; 5 mice in one group), in an amount of […] of body weight.

In data set [1] the test system is Japanese native, male house rabbits. The note with it: rabbit, in vivo. Here is the method: Aqueous solutions of N-Methyl-L-Serine, Ethanolamine and N-Methylethanolamine that had been adjusted to have a pH of 7 with hydrochloric acid were used as test samples.
Using Japanese native, male house rabbits (body weight: about 3 kg), the test samples were tested according to the Draize method (see Appraisal of the Safety of Chemicals in Foods, Drugs and Cosmetics, p. 46, 1959, edited and published by the Deitorial Committee, Association of Food and Drug Officials of U.S.A.).
24 hours after the last application, the tested area of each rabbit was checked to score the erythema, edema, scab and rhagades, if any, formed in the area.
The erythema score, the edema score, the scab score, and the rhagades score as referred to in Table 17 were summed up to obtain the cumulative stimulation score.
Next, from the cumulative stimulation scores, obtained were the degrees of stimulation with N-Methyl-L-Serine, Ethanolamine and N-Methylethanolamine,according to the criteria shown in Table 18 below.

For a further data set, the system named is healthy panelists. Particulars: in vivo. As to the method: Aqueous solutions of N-methyl-L-serine, ethanolamine and N-methylethanolamine that had been adjusted to have a pH 7 with hydrochloric acid were used as test samples. These test samples were applied to 19 healthy panelists.
One hour and 24 hours after the removal of the patch, the condition of the skin of each panelist was observed.

Take `CN[C@@H](CO)C(=O)O` [Example 1, N-methyl-L-serine]: the deaths of mice entry in the data set on male ICR mice is listed as “No mice of the test group to which N-Methyl-L-Serine was administered died”. In data set [1], the “cumulative stimulation to the skin (in words)” value is on record as “low”. Moreover, the panelists with erythema result with healthy panelists was “only one panelists had minor erythema”.

The record behind these values is patent publication US6008188A, “Cytokine potentiator and pharmaceutical formulation for cytokine administration” (Kanebo Limited, priority 1994, dated 1999).
